In patent publication US20250326744A1, “PIPERAZINE DERIVATIVE OR SALT THEREOF, AND PHARMACEUTICAL COMPOSITION” (priority 2022, published 2025):
Structures can show the parent of a compound that is named as a salt.

Legend:
mexB (PA) strain = test: Combinational effect with antibacterial agent against Pseudomonas aeruginosa (Test Examples 2 and 4): mexB (PA) strain with LVFX, TC or AZT at 1/4 MIC, EC99; format: cell-based; conditions: Table 52, Test Example 2, 16 to 20 hours culture, OD595; for EC99, mexB (PA), AZT: combined with AZT at 1/4 MIC; for EC99, mexB (PA), LVFX: combined with LVFX at 1/4 MIC; for EC99, mexB (PA), TC: combined with TC at 1/4 MIC
How it was run: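 P. aeruginosa mexB (PA) strain, lacking MexCD-OprJ, MexEF-OprN and MexXY and overexpressing MexAB-OprM, grown 16–20 h in CAMHB (10^4–5 CFU/well) with LVFX, TC or AZT at ¼ MIC plus test compound at 0–800 μM. Growth read as OD595; EC99 is the lowest compound concentration giving ≥99% growth inhibition.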

S-3769 strain = test: Combinational effect with antibacterial agent against Pseudomonas aeruginosa (Test Examples 2 and 4): S-3769 strain with AMK or GM at 1/4 MIC, EC99; format: cell-based; conditions: Table 52, Test Example 2, 16 to 20 hours culture, OD595; for EC99, S-3769 strain, AMK: combined with AMK at 1/4 MIC; for EC99, S-3769 strain, GM: combined with GM at 1/4 MIC
How it was run: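 P. aeruginosa S-3769 (clinical isolate, MexY overexpressed) grown 16–20 h in CAMHB, 10^4 to 5 CFU/well, with AMK or GM at ¼ MIC plus test compound 0–800 μM. Growth read as OD595; EC99 is the lowest compound concentration giving ≥99% growth inhibition.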

| Structure (SMILES) | EC99, mexB (PA), AZT (mexB (PA) strain) | EC99, mexB (PA), LVFX (mexB (PA) strain) | EC99, mexB (PA), TC (mexB (PA) strain) | EC99, S-3769 strain, AMK (S-3769 strain) | EC99, S-3769 strain, GM (S-3769 strain) |
| --- | --- | --- | --- | --- | --- |
| CCOc1cccc(F)c1CN1CCN(C(=O)[C@H](N)C2CCN(CCc3cc(Cl)ccc3-c3cccc(O)c3)CC2)CC1 [Example 100, (R)-2-amino-2-(1-(2-(4-chloro-3′-hydroxy-[1,1′-biphenyl]-2-yl)ethyl)piperidin-4-yl)-1-(4-(2-ethoxy-6-fluorobenzyl)piperazin-1-yl)ethan-1-one] | A (12.5 μM<EC99≤25 μM) | A (12.5 μM<EC99≤25 μM) | A (12.5 μM<EC99≤25 μM) | S (EC99≤12.5 μM) | S (EC99≤12.5 μM) |
| CCOc1cccc(F)c1CN1CCN(C(=O)[C@H](N)C2CCN(CCc3cc(Cl)ccc3-c3ccsc3)CC2)CC1 [Example 101, Hydrobromide of (R)-2-amino-2-(1-(5-chloro-2-(thiophen-3-yl)phenethyl)piperidin-4-yl)-1-(4-(2-ethoxy-6-fluorobenzyl)piperazin-1-yl)ethan-1-one] | B (25 μM<EC99≤100 μM) | C (100 μM<EC99) | B (25 μM<EC99≤100 μM) | S (EC99≤12.5 μM) | S (EC99≤12.5 μM) |
| CCOc1ccc(O)c(F)c1CN1CCN(C(=O)[C@H](N)C2CCN(CCc3cc(Cl)ccc3-c3ccccc3)CC2)CC1 [Example 104, hydrochloride of (R)-2-amino-2-(1-(2-(4-chloro-[1,1′-biphenyl]-2-yl)ethyl)piperidin-4-yl)-1-(4-(6-ethoxy-2-fluoro-3-hydroxybenzyl)piperazin-1-yl)ethan-1-one] | A (12.5 μM<EC99≤25 μM) | B (25 μM<EC99≤100 μM) | A (12.5 μM<EC99≤25 μM) | S (EC99≤12.5 μM) | S (EC99≤12.5 μM) |
| CCOc1cccc(F)c1CN1CCN(C(=O)[C@H](N)C2CCN(CCc3cc(Cl)ccc3-c3ccccc3O)CC2)CC1 [Example 107, (R)-2-amino-2-(1-(2-(4-chloro-2′-hydroxy-[1,1′-biphenyl]-2-yl)ethyl)piperidin-4-yl)-1-(4-(2-ethoxy-6-fluorobenzyl)piperazin-1-yl)ethan-1-one] | A (12.5 μM<EC99≤25 μM) | A (12.5 μM<EC99≤25 μM) | A (12.5 μM<EC99≤25 μM) | A (12.5 μM<EC99≤25 μM) | A (12.5 μM<EC99≤25 μM) |
| CCOc1cccc(F)c1CN1CCN(C(=O)[C@H](N)C2CCN(CCc3cc(Cl)ccc3-c3ccc(F)cc3O)CC2)CC1 [Example 108, Hydrochloride of (R)-2-amino-2-(1-(2-(4-chloro-4′-fluoro-2′-hydroxy-[1,1′-biphenyl]-2-yl)ethyl)piperidin-4-yl)-1-(4-(2-ethoxy-6-fluorobenzyl)piperazin-1-yl)ethan-1-one] | B (25 μM<EC99≤100 μM) | B (25 μM<EC99≤100 μM) | A (12.5 μM<EC99≤25 μM) | S (EC99≤12.5 μM) | A (12.5 μM<EC99≤25 μM) |
| CCOc1cccc(F)c1CN1CCN(C(=O)[C@H](N)C2CCN(CCc3ccccc3-c3ccccc3)CC2)CC1 [Example 109, hydrochloride of (R)-2-(1-(2-([1,1′-biphenyl]-2-yl)ethyl)piperidin-4-yl)-2-amino-1-(4-(2-ethoxy-6-fluorobenzyl)piperazin-1-yl)ethan-1-one] | B (25 μM<EC99≤100 μM) | C (100 μM<EC99) | B (25 μM<EC99≤100 μM) | 4 µM | A (12.5 μM<EC99≤25 μM) |
| CCOc1cccc(F)c1CN1CCN(C(=O)[C@H](N)C2CCN(CCc3ccccc3F)CC2)CC1 [Example 121, Hydrochloride of (R)-2-amino-1-(4-(2-ethoxy-6-fluorobenzyl)piperazin-1-yl)-2-(1-(2-fluorophenethyl)piperidin-4-yl)ethan-1-one] | C (100 μM<EC99) | C (100 μM<EC99) | C (100 μM<EC99) | B (25 μM<EC99≤100 μM) | B (25 μM<EC99≤100 μM) |
| CCOc1cccc(F)c1CN1CCN(C(=O)[C@H](N)C2CCN(CCc3ccccc3OC)CC2)CC1 [Example 122, Hydrochloride of (R)-2-amino-1-(4-(2-ethoxy-6-fluorobenzyl)piperazin-1-yl)-2-(1-(2-methoxyphenethyl)piperidin-4-yl)ethan-1-one] | C (100 μM<EC99) | C (100 μM<EC99) | C (100 μM<EC99) | B (25 μM<EC99≤100 μM) | A (12.5 μM<EC99≤25 μM) |
| CCOc1cccc(F)c1CN1CCN(C(=O)[C@H](N)C2CCN(CCC3CCCCO3)CC2)CC1 (some centres unmarked) [Example 123] | C (100 μM<EC99) | C (100 μM<EC99) | C (100 μM<EC99) | C (100 μM<EC99) | C (100 μM<EC99) |
| CCOc1cccc(F)c1CN1CCN(C(=O)[C@H](N)C2CCN(CCc3cc(Cl)ccc3-c3ccccc3)CC2)CC1 [Example 137, (R)-2-amino-2-(1-(2-(4-chloro-[1,1′-biphenyl]-2-yl)ethyl)piperidin-4-yl)-1-(4-(2-ethoxy-6-fluorobenzyl)piperazin-1-yl)ethan-1-one] | S (EC99≤12.5 μM) | A (12.5 μM<EC99≤25 μM) | A (12.5 μM<EC99≤25 μM) | S (EC99≤12.5 μM) | S (EC99≤12.5 μM) |
| CCOc1cccc(F)c1CN1CCN(C(=O)[C@H](N)C2CCN(CCc3cc(Cl)ccc3-c3ccccc3F)CC2)CC1 [Example 139, hydrochloride of (R)-2-amino-2-(1-(2-(4-chloro-2′-fluoro-[1,1′-biphenyl]-2-yl)ethyl)piperidin-4-yl)-1-(4-(2-ethoxy-6-fluorobenzyl)piperazin-1-yl)ethan-1-one] | A (12.5 μM<EC99≤25 μM) | A (12.5 μM<EC99≤25 μM) | A (12.5 μM<EC99≤25 μM) | S (EC99≤12.5 μM) | S (EC99≤12.5 μM) |
| CCOc1cccc(F)c1CN1CCN(C(=O)[C@H](N)C2CCN(CCc3c[nH]c4ccccc34)CC2)CC1 [Example 148, hydrobromide of (R)-2-(1-(2-(1H-indol-3-yl)ethyl)piperidin-4-yl)-2-amino-1-(4-(2-ethoxy-6-fluorobenzyl)piperazin-1-yl)ethan-1-one] | C (100 μM<EC99) | C (100 μM<EC99) | B (25 μM<EC99≤100 μM) | S (EC99≤12.5 μM) | S (EC99≤12.5 μM) |
| CCOc1cccc(F)c1CN1CCN(C(=O)[C@H](N)C2CCN(CCc3cccc4ccc(OC)cc34)CC2)CC1 [Example 149, Hydrobromide of (R)-2-amino-1-(4-(2-ethoxy-6-fluorobenzyl)piperazin-1-yl)-2-(1-(2-(7-methoxynaphthalen-1-yl)ethyl)piperidin-4-yl)ethan-1-one] | C (100 μM<EC99) | C (100 μM<EC99) | B (25 μM<EC99≤100 μM) | S (EC99≤12.5 μM) | S (EC99≤12.5 μM) |
| CCOc1cccc(F)c1CN1CCN(C(=O)[C@H](N)C2CCN(CCc3csc4ccccc34)CC2)CC1 [Example 150, Hydrobromide of (R)-2-amino-2-(1-(2-(benzo[b]thiophen-3-yl)ethyl)piperidin-4-yl)-1-(4-(2-ethoxy-6-fluorobenzyl)piperazin-1-yl)ethan-1-one] | B (25 μM<EC99≤100 μM) | C (100 μM<EC99) | B (25 μM<EC99≤100 μM) | S (EC99≤12.5 μM) | S (EC99≤12.5 μM) |
| CCOc1cccc(F)c1CN1CCN(C(=O)[C@H](N)C2CCN(CCC3CCCc4ccccc43)CC2)CC1 (stereo partly drawn) [Example 151, Hydrobromide of (2R)-2-amino-1-(4-(2-ethoxy-6-fluorobenzyl)piperazin-1-yl)-2-(1-(2-(1,2,3,4-tetrahydronaphthalen-1-yl)ethyl)piperidin-4-yl)ethan-1-one] | C (100 μM<EC99) | C (100 μM<EC99) | C (100 μM<EC99) | B (25 μM<EC99≤100 μM) | B (25 μM<EC99≤100 μM) |
| CCOc1cccc(F)c1CN1CCN(C(=O)[C@H](N)C2CCN(CCc3coc4ccccc34)CC2)CC1 [Example 152, Hydrobromide of (R)-2-amino-2-(1-(2-(benzofuran-3-yl)ethyl)piperidin-4-yl)-1-(4-(2-ethoxy-6-fluorobenzyl)piperazin-1-yl) ethan-1-one] | C (100 μM<EC99) | C (100 μM<EC99) | C (100 μM<EC99) | S (EC99≤12.5 μM) | S (EC99≤12.5 μM) |
